Laboratory results: ChEMBL document CHEMBL1201862, “PubChem BioAssay data set” (2004)
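Each compound was tested at five concentrations against cells in 96-well plates for 48 hours. GI50 = concentration required for 50% inhibition of growth.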 Activity calls are given as the source filed them. Rule as the data show it: active = GI50 up to about 1.1 µM and inactive = higher.

Key:
Assay in all cases: DTP human tumour cell line panel, 48 h
SNB-75 = system: SNB-75
OVCAR-3 = system: OVCAR-3
NCI-H522 = system: NCI-H522
KM12 = system: KM12
MOLT-4 = system: MOLT-4
HCT-116 = system: HCT-116
UACC-257 = system: UACC-257
HCT-15 = system: HCT-15
HOP-92 = system: HOP-92
NCI-H23 = system: NCI-H23
NCI-H226 = system: NCI-H226
UACC-62 = system: UACC-62
SK-OV-3 = system: SK-OV-3
IGROV-1 = system: IGROV-1
SR = system: SR
HCC 2998 = system: HCC 2998
EKVX = system: EKVX
MDA-MB-435 = system: MDA-MB-435
MCF7 = system: MCF7
NCI/ADR-RES = system: NCI/ADR-RES

Row | SMILES | GI50 (SNB-75) | GI50 (OVCAR-3) | GI50 (NCI-H522) | GI50 (KM12) | GI50 (MOLT-4) | GI50 (HCT-116) | GI50 (UACC-257) | GI50 (HCT-15) | GI50 (HOP-92) | GI50 (NCI-H23) | GI50 (NCI-H226) | GI50 (UACC-62) | GI50 (SK-OV-3) | GI50 (IGROV-1) | GI50 (SR) | GI50 (HCC 2998) | GI50 (EKVX) | GI50 (MDA-MB-435) | GI50 (MCF7) | GI50 (NCI/ADR-RES)
1 | CCCCN(CCCC)CC(C(=O)Nc1ccccc1)/C(C)=N\NC(=O)c1ccncc1 (centres undefined) | 16.9 µM (inactive) | 64.7 µM (inactive) | > 100 µM (inactive) | > 100 µM (inactive) | > 100 µM (inactive) | 92 µM (inactive) | > 100 µM (inactive) | > 100 µM | > 100 µM (inactive) | > 100 µM (inactive) | > 100 µM (inactive) | 59.3 µM (inactive) | > 100 µM (inactive) | > 100 µM (inactive) | > 100 µM (inactive) | > 100 µM (inactive) | – | – | – | –
2 | CCOC(=O)c1ncn2c1[nH]c(=O)c1ccccc12 | 11.9 µM (inactive) | > 100 µM (inactive) | > 100 µM (inactive) | > 100 µM (inactive) | > 100 µM (inactive) | > 100 µM (inactive) | – | > 100 µM | – | > 100 µM (inactive) | > 100 µM (inactive) | > 100 µM (inactive) | – | > 100 µM (inactive) | > 100 µM (inactive) | – | > 100 µM (inactive) | – | – | –
3 | O=c1c2nc3ccccc3c(=O)n2ncn1-c1ccccc1Cl | > 100 µM (inactive) | > 100 µM (inactive) | > 100 µM (inactive) | > 100 µM (inactive) | – | > 100 µM (inactive) | > 100 µM (inactive) | > 100 µM | > 100 µM (inactive) | > 100 µM (inactive) | > 100 µM (inactive) | > 100 µM (inactive) | > 100 µM (inactive) | > 100 µM (inactive) | > 100 µM (inactive) | > 100 µM (inactive) | > 100 µM (inactive) | > 100 µM (inactive) | > 100 µM (inactive) | –
4 | CC(Oc1cc2oc(=O)cc(-c3ccccc3)c2cc1Cl)C(=O)O (centres undefined) | > 100 µM (inactive) | > 100 µM (inactive) | > 100 µM (inactive) | > 100 µM (inactive) | > 100 µM (inactive) | > 100 µM (inactive) | > 100 µM (inactive) | – | > 100 µM (inactive) | > 100 µM (inactive) | > 100 µM (inactive) | > 100 µM (inactive) | > 100 µM (inactive) | > 100 µM (inactive) | > 100 µM (inactive) | > 100 µM (inactive) | > 100 µM (inactive) | – | – | –
5 | CN(C)c1ccc(/C=C2\C[N+](C)(C)C/C(=C\c3ccc(N(C)C)cc3)C2=O)cc1 | 17.1 µM (inactive) | 5.9 µM (inactive) | 9.66 µM (inactive) | 6.14 µM (inactive) | 13.6 µM (inactive) | 8.93 µM (inactive) | 12.1 µM (inactive) | > 100 µM | 19.4 µM (inactive) | 17.7 µM (inactive) | 30.5 µM (inactive) | 13.6 µM (inactive) | 26.7 µM (inactive) | 8.57 µM (inactive) | 8.09 µM (inactive) | 8.18 µM (inactive) | 38 µM (inactive) | 12.1 µM (inactive) | 5.4 µM (inactive) | –
6 | CCOC(=O)c1cc2c(cn1)[nH]c1cccc(N)c12 | > 100 µM (inactive) | > 100 µM (inactive) | > 100 µM (inactive) | > 100 µM (inactive) | 61.5 µM (inactive) | > 100 µM (inactive) | > 100 µM (inactive) | – | > 100 µM (inactive) | > 100 µM (inactive) | – | > 100 µM (inactive) | – | > 100 µM (inactive) | > 100 µM (inactive) | > 100 µM (inactive) | – | – | – | –
7 | C=CCN(N=O)C(=O)NCCCC(NC(C)=O)C(=O)NCc1ccccc1 (centres undefined) | > 100 µM (inactive) | > 100 µM (inactive) | > 100 µM (inactive) | > 100 µM (inactive) | > 100 µM (inactive) | – | > 100 µM (inactive) | > 100 µM | 61.5 µM (inactive) | > 100 µM (inactive) | > 100 µM (inactive) | > 100 µM (inactive) | > 100 µM (inactive) | > 100 µM (inactive) | – | – | > 100 µM (inactive) | – | – | –
8 | CC(C)(C)C(=O)Cc1cc2c(cc1C(=O)O)S(=O)(=O)NC(C(C)(C)C)=C2 | > 100 µM (inactive) | > 100 µM (inactive) | > 100 µM (inactive) | > 100 µM (inactive) | > 100 µM (inactive) | > 100 µM (inactive) | > 100 µM (inactive) | – | > 100 µM (inactive) | > 100 µM (inactive) | > 100 µM (inactive) | > 100 µM (inactive) | > 100 µM (inactive) | – | > 100 µM (inactive) | – | > 100 µM (inactive) | – | – | –
9 | O=c1[nH]c2cccccc-2c1-c1nc2ccccc2[nH]1 | 12.2 µM (inactive) | > 10 µM (inactive) | 19.3 µM (inactive) | 4.82 µM (inactive) | – | 19.8 µM (inactive) | > 100 µM (inactive) | 21.9 µM | 25.8 µM (inactive) | 31.3 µM (inactive) | 11.1 µM (inactive) | 17.9 µM (inactive) | 20.1 µM (inactive) | 32.7 µM (inactive) | 34.2 µM (inactive) | 38.7 µM (inactive) | 40.8 µM (inactive) | – | – | –
10 | O=C(O)C12C=CC(C1)c1ccccc12 (centres undefined) | – | > 100 µM (inactive) | – | – | > 100 µM (inactive) | > 100 µM (inactive) | > 100 µM (inactive) | > 100 µM | > 100 µM (inactive) | > 100 µM (inactive) | > 100 µM (inactive) | > 100 µM (inactive) | > 100 µM (inactive) | > 100 µM (inactive) | > 100 µM (inactive) | > 100 µM (inactive) | – | – | – | –
11 | Cc1ccc(NC(=O)CCC(=O)C2CC(=O)CC/C2=N\NC(=O)c2cc3ccccc3cc2O)cc1C (centres undefined) | 17.1 µM (inactive) | 14.8 µM (inactive) | 16.6 µM (inactive) | 31.8 µM (inactive) | 17.7 µM (inactive) | 19.6 µM (inactive) | 20.7 µM (inactive) | 14.7 µM | 14.3 µM (inactive) | 15.7 µM (inactive) | 23 µM (inactive) | 10.2 µM (inactive) | 67.9 µM (inactive) | 15.5 µM (inactive) | 22.1 µM (inactive) | 18.7 µM (inactive) | 29 µM (inactive) | – | – | –
12 | CCCCn1c(-c2ccccc2)cs/c1=N\N=C1C=C(C(C)(C)C)C(=O)C(C(C)(C)C)=C1 | – | > 100 µM (inactive) | – | – | > 100 µM (inactive) | > 100 µM (inactive) | > 100 µM (inactive) | > 100 µM | – | > 100 µM (inactive) | > 100 µM (inactive) | > 100 µM (inactive) | – | > 100 µM (inactive) | > 100 µM (inactive) | > 100 µM (inactive) | > 100 µM (inactive) | – | – | –
13 | COc1ccc(C2S/C(=C\c3cc(OC)c(OC)c(OC)c3)C(=O)N2NC(=O)Cc2ccccc2)cc1 (centres undefined) | 67.9 µM (inactive) | – | > 100 µM (inactive) | > 100 µM (inactive) | 44.3 µM (inactive) | 89.9 µM (inactive) | 76.6 µM (inactive) | > 100 µM | > 100 µM (inactive) | > 100 µM (inactive) | > 100 µM (inactive) | > 100 µM (inactive) | > 100 µM (inactive) | > 100 µM (inactive) | > 100 µM (inactive) | – | – | – | – | –
14 | CCOC(=O)NC(=O)c1cn(CCN2CCN(C(=O)NCCCCCCNC(=O)N3CCN(CCn4cc(C(=O)NC(=O)OCC)c(=O)[nH]c4=O)CC3)CC2)c(=O)[nH]c1=O | > 100 µM (inactive) | > 100 µM (inactive) | > 100 µM (inactive) | > 100 µM (inactive) | – | > 100 µM (inactive) | > 100 µM (inactive) | > 100 µM | > 100 µM (inactive) | > 100 µM (inactive) | – | > 100 µM (inactive) | > 100 µM (inactive) | > 100 µM (inactive) | > 100 µM (inactive) | > 100 µM (inactive) | > 100 µM (inactive) | – | – | –
15 | COC(=O)C(CC(C)=O)CS(=O)(=O)CC(=O)C(=O)Nc1cccc([N+](=O)[O-])c1 (centres undefined) | > 100 µM (inactive) | > 100 µM (inactive) | > 100 µM (inactive) | > 100 µM (inactive) | – | > 100 µM (inactive) | > 100 µM (inactive) | > 100 µM | > 100 µM (inactive) | > 100 µM (inactive) | > 100 µM (inactive) | > 100 µM (inactive) | > 100 µM (inactive) | > 100 µM (inactive) | – | > 100 µM (inactive) | > 100 µM (inactive) | – | – | –
16 | COC(=O)c1cc(C)n(NC(=O)OC(C)(C)C)c1C | > 100 µM (inactive) | > 100 µM (inactive) | > 100 µM (inactive) | > 100 µM (inactive) | > 100 µM (inactive) | > 100 µM (inactive) | > 100 µM (inactive) | > 100 µM | – | > 100 µM (inactive) | > 100 µM (inactive) | > 100 µM (inactive) | > 100 µM (inactive) | > 100 µM (inactive) | – | > 100 µM (inactive) | > 100 µM (inactive) | – | – | –
17 | Nc1ccn(CCOC(c2ccccc2)P(=O)(O)O)c(=O)n1 (centres undefined) | 12.2 µM (inactive) | > 100 µM (inactive) | > 100 µM (inactive) | > 100 µM (inactive) | > 100 µM (inactive) | > 100 µM (inactive) | > 100 µM (inactive) | > 100 µM | – | > 100 µM (inactive) | > 100 µM (inactive) | > 100 µM (inactive) | > 100 µM (inactive) | > 100 µM (inactive) | > 100 µM (inactive) | > 100 µM (inactive) | > 100 µM (inactive) | – | – | –
18 | COC(=O)CSc1cc(Cl)c(C)cc1S(=O)(=O)Nc1n[nH]c(N)n1 | > 10 µM (inactive) | > 10 µM (inactive) | > 10 µM (inactive) | > 10 µM (inactive) | > 10 µM (inactive) | > 10 µM (inactive) | > 10 µM (inactive) | > 10 µM | > 10 µM (inactive) | > 10 µM (inactive) | > 10 µM (inactive) | – | > 10 µM (inactive) | > 10 µM (inactive) | > 10 µM (inactive) | > 10 µM (inactive) | > 10 µM (inactive) | – | > 10 µM (inactive) | > 10 µM (inactive)
